{"source": "ChEMBL document CHEMBL5500425", "about": "“Designing Small Molecule PI3Kγ Inhibitors: A Review of Structure-Based Methods and Computational Approaches” (J Med Chem, 2024)", "key": {"[1]": {"assay": "Clearance in Beagle Dog at 1 micromol/kg, iv", "format": "ADME, Canis lupus familiaris", "details": "in vivo, dose 1 µmol/kg"}, "[2]": {"assay": "Oral bioavailability in Beagle dog at 2 mg/kg", "format": "ADME, organism-based, Canis lupus familiaris", "details": "in vivo"}, "[3]": {"target": "T1, Phosphatidylinositol 4,5-bisphosphate 3-kinase catalytic subunit gamma isoform (Homo sapiens, UniProt P48736)", "assay": "Inhibition of human recombinant PI3Kgamma using phosphatidylinositol as substrate in presence of [gamma33P]ATP by scintillation proximity assay"}, "[4]": {"target": "T2, Phosphatidylinositol 4,5-bisphosphate 3-kinase catalytic subunit delta isoform (Homo sapiens, UniProt O00329)", "T2 sequence (O00329 whole entry)": "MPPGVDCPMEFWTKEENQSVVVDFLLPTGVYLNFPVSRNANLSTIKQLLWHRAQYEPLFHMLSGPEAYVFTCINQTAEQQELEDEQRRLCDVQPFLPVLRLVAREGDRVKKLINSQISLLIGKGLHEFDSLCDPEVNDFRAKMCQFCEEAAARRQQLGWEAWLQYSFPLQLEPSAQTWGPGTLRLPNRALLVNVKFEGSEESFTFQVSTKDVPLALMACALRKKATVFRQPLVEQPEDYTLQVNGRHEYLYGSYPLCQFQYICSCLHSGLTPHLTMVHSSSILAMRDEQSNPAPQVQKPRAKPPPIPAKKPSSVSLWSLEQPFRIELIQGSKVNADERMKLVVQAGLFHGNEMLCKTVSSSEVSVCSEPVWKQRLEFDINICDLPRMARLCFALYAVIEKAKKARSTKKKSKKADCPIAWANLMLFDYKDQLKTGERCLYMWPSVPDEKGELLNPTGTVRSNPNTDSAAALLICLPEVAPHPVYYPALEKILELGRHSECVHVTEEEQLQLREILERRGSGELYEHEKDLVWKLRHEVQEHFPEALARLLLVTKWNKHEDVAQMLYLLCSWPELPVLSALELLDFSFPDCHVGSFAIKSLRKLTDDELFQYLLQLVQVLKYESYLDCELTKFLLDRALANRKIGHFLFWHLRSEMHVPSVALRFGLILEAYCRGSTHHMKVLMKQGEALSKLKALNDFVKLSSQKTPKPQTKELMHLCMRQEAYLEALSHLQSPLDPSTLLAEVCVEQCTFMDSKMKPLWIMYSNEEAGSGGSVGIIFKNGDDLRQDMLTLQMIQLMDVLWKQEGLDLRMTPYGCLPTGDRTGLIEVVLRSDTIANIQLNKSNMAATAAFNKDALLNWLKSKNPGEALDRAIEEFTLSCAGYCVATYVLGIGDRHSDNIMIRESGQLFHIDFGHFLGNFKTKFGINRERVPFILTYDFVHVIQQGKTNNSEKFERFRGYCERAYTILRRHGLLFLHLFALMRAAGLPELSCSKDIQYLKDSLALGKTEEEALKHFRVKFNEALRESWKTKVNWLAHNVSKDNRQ", "assay": "Inhibition of P13Kdelta (unknown origin) in the presence of ATP by scintillation proximity assay"}, "[5]": {"target": "Phosphatidylinositol 4,5-bisphosphate 3-kinase catalytic subunit alpha isoform (Homo sapiens, UniProt P42336)", "sequence (P42336 whole entry, canonical isoform)": "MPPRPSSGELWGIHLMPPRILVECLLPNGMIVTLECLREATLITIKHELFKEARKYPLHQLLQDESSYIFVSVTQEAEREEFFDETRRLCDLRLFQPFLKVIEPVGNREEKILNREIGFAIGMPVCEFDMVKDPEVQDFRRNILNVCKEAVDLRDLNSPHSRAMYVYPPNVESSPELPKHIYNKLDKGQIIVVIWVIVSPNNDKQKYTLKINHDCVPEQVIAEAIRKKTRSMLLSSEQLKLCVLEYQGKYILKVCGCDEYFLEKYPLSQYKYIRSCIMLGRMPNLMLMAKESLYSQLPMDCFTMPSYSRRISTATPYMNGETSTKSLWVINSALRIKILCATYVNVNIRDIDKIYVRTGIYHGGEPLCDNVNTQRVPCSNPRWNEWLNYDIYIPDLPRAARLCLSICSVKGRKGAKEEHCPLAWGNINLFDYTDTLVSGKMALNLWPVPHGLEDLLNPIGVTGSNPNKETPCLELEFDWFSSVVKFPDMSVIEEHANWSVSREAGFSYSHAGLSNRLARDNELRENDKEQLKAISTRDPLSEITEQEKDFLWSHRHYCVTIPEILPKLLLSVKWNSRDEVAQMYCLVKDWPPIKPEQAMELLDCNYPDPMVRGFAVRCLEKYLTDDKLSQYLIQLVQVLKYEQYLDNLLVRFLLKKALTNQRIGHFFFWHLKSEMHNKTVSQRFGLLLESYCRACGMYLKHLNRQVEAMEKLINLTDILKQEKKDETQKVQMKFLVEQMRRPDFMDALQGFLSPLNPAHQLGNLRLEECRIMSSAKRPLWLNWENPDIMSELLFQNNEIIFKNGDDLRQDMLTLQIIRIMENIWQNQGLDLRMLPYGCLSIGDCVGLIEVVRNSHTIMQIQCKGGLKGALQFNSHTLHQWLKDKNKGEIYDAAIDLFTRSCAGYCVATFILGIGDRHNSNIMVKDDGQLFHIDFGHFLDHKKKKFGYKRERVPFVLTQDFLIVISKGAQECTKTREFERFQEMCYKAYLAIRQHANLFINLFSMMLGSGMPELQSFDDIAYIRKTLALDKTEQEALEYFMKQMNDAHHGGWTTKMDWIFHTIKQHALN", "assay": "Inhibition of PI3Kalpha (unknown origin) using […] as substrate preincubated for 10 mins followed by substrate addition by microplate reader analysis"}, "[6]": {"assay": "Oral bioavailability in rat at 10 mg/kg", "format": "ADME, organism-based", "details": "in vivo"}, "[7]": {"assay": "Inhibition of P13Kalpha (unknown origin) in the presence of ATP by scintillation proximity assay"}, "[8]": {"target": "T1, Phosphatidylinositol 4,5-bisphosphate 3-kinase catalytic subunit gamma isoform", "assay": "Inhibition of human PI3Kgamma expressed in baculovirus infected Sf21 insect cells by ADP-Glo assay"}, "[9]": {"target": "T2, Phosphatidylinositol 4,5-bisphosphate 3-kinase catalytic subunit delta isoform", "assay": "Inhibition of human PI3Kdelta expressed in baculovirus infected Sf21 insect cells by ADP-Glo assay"}, "[10]": {"target": "T2, Phosphatidylinositol 4,5-bisphosphate 3-kinase catalytic subunit delta isoform", "assay": "Inhibition of PI3Kdelta (unknown origin)"}, "[11]": {"target": "T1, Phosphatidylinositol 4,5-bisphosphate 3-kinase catalytic subunit gamma isoform", "assay": "Inhibition of PI3Kgamma (unknown origin)"}, "[12]": {"assay": "Inhibition of P13Kalpha (unknown origin)"}, "[13]": {"target": "Phosphatidylinositol 4,5-bisphosphate 3-kinase catalytic subunit beta isoform (Homo sapiens, UniProt P42338)", "sequence (P42338 whole entry, canonical isoform)": "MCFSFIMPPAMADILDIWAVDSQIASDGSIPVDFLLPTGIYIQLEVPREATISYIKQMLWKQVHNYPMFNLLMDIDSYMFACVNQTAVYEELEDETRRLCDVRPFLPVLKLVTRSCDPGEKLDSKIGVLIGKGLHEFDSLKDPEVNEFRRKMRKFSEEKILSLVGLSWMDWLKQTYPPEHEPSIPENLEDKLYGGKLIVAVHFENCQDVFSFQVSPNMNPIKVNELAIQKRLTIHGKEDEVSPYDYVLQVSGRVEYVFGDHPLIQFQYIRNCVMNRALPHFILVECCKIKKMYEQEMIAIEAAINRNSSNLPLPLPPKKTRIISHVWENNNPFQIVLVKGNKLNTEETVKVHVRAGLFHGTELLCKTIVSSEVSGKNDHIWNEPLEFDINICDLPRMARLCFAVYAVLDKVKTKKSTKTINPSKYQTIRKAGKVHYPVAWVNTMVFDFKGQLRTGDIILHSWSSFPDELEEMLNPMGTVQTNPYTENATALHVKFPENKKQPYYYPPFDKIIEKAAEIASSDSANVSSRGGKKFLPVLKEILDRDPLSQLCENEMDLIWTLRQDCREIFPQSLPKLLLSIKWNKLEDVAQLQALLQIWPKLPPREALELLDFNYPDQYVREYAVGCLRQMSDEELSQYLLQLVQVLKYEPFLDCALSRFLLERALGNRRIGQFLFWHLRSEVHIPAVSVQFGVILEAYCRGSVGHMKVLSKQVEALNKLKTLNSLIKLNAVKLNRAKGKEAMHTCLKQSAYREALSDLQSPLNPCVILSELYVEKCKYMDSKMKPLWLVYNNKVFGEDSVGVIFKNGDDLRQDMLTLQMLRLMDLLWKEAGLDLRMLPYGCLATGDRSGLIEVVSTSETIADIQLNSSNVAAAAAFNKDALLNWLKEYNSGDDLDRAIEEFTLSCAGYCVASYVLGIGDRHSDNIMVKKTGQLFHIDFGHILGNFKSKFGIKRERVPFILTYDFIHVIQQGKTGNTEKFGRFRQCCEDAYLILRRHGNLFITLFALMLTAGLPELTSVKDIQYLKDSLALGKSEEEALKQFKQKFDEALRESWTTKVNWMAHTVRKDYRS", "assay": "Inhibition of PI3Kbeta (unknown origin)"}}, "note": "pIC50: −log10 of the molar value."}
{"smiles": "CC(=O)Nc1nc(C)c(-c2cc3c(c(S(C)(=O)=O)c2)C(=O)N([C@@H](C)C2CC2)C3)s1", "values": [{"measurement": "clearance", "setting": "[1]", "value": 0.198, "unit": "L/h/kg"}, {"measurement": "bioavailability", "setting": "[2]", "value": 82, "unit": "%"}]}
{"smiles": "Cc1cc(C(O)(CO)C(F)F)ccc1-c1cnc(N)c(C(=O)N2CC[C@H](CO)C2)n1", "note": "(stereo partly specified)", "values": [{"measurement": "pIC50", "setting": "[3]", "value": "≥ 7.00"}, {"measurement": "pIC50", "setting": "[4]", "value": "> 5.70"}]}
{"smiles": "CC1(CCn2nc(-c3ccc(Cl)c(O)c3)c3c(N)ncnc32)COC1", "values": [{"measurement": "pIC50", "setting": "[5]", "value": 6.76}]}
{"smiles": "Cc1ncc(-c2cc(-c3ccc(S(=O)(=O)NCC(C)(C)O)cc3C)cnc2N)o1", "values": [{"measurement": "bioavailability", "setting": "[6]", "value": 72, "unit": "%"}, {"measurement": "pIC50", "setting": "[7]", "value": 6.52}, {"measurement": "pIC50", "setting": "[3]", "value": 7.40}]}
{"smiles": "Cc1nnc(-c2cc(-c3cc4c(c(S(C)(=O)=O)c3)C(=O)N([C@@H](C)C3CC3)C4)ccn2)[nH]1", "values": [{"measurement": "pIC50", "setting": "[4]", "value": "> 5.70"}]}
{"smiles": "Cc1cc(S(=O)(=O)N[C@H]2CC[C@H](O)CC2)ccc1-c1cnc(N)c(C(=O)C2CC2)n1", "values": [{"measurement": "bioavailability", "setting": "[6]", "value": 23, "unit": "%"}, {"measurement": "pIC50", "setting": "[7]", "value": 6.96}, {"measurement": "pIC50", "setting": "[3]", "value": 7.62}]}
{"smiles": "Cc1nc(N)c2ncc(-c3cc(C(C)(O)CC(F)(F)F)ccc3C)n2n1", "note": "(stereo unspecified)", "values": [{"measurement": "pIC50", "setting": "[4]", "value": "> 5.70"}]}
{"smiles": "COc1cncc(-c2ccc3nc(-c4nc5c(C)cccc5[nH]4)oc3c2)c1", "values": [{"measurement": "pIC50", "setting": "[8]", "value": "> 6.60"}, {"measurement": "pIC50", "setting": "[9]", "value": "≤ 5.30"}]}
{"smiles": "Clc1ccc(Cn2cc(-c3ccnc(-c4ncc(-c5ccccc5)[nH]4)c3)cn2)cc1", "values": [{"measurement": "pIC50", "setting": "[4]", "value": "< 6.30"}]}
{"smiles": "CC(NC(=O)c1c(N)nn2cccnc12)c1cc(Cl)c2c(C#N)ncn2c1N1CCS(=O)(=O)C(C)C1", "note": "(stereo unspecified)", "values": [{"measurement": "pIC50", "setting": "[10]", "value": "> 5.70"}, {"measurement": "pIC50", "setting": "[11]", "value": "> 7.00"}]}
{"smiles": "Cc1cc(S(=O)(=O)N[C@H]2CC[C@H](O)CC2)ccc1-c1cnc2c(N)c(Cl)ccn12", "values": [{"measurement": "pIC50", "setting": "[4]", "value": "≥ 6.30"}]}
{"smiles": "CC(=O)c1c(C)n(-c2ccc(C)cc2)c2ccc(OCC(O)CNCc3ccc(Cl)cc3)cc12", "note": "(stereo unspecified)", "values": [{"measurement": "pIC50", "setting": "[12]", "value": "< 4.70"}, {"measurement": "pIC50", "setting": "[13]", "value": "< 4.70"}]}
